In brackets after ≈: the same amount, converted by molar mass.

A short description of the experiment: Cytotoxicity against GPK cells by [3H]thymidine incorporation assay. To be noted: Cavia porcellus. Format: functional, cell-based. (Incorporation of labelled thymidine or its analogues reports DNA synthesis.)
Broadly, the IC50 is the midpoint of a concentration-inhibition curve. A higher IC50 goes with lower potency. Consider `COc1cnc2ccc(=O)n3c4ccccc4c1c23`, for which the IC50 was 5.76 µg/mL (≈ 23 µM). The compound `O=c1ccc2c3c(cc[n+]2[O-])c2ccccc2n13` showed an IC50 of 4.21 µg/mL (≈ 17.8 µM).

The compound `O=c1ccc2nccc3c4ccccc4n1c23` [CANTHIN-6-ONE] registered a 50% inhibitory concentration (IC50) of 1.11 µg/mL (≈ 5.04 µM). As to `COc1cc2nccc3c4ccccc4n(c1=O)c23` [5-METHOXYCANTHINONE], the IC50 amounted to 5.44 µg/mL (≈ 21.7 µM).

These data come from ChEMBL document CHEMBL1145656, “Production of cytotoxic canthin-6-one alkaloids by Ailanthus altissima plant cell cultures” (J Nat Prod, 1983).
